Results from PubChem BioAssay AID179 (DTP/NCI, 2004).
The source made the active and inactive calls.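 The calls were made as follows: active = compounds giving half or more protection of infected cells from virus-caused growth loss, again on retest; inactive = the rest.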

System: CEM cells HIV-1 protection, formazan growth assay
Experiment: NCI AIDS Antiviral Assay
Details: for IC50: measured here: growth of uninfected CEM cells
Summary of the method: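 Human CEM cells, uninfected and HIV-1-infected, exposed to five drug concentrations; growth measured by soluble formazan assay and scored as percent protection from infection, with protecting compounds retested.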

| Compound | outcome | EC50 | IC50 |
| --- | --- | --- | --- |
| O=C1C=C(Br)c2c(-c3ccccc3)oc3cccc1c23 | inactive |  |  |
| CCOP(=O)(OCC)/C(C#N)=C/c1ccc(-c2cc(C(F)(F)F)cc(C(F)(F)F)c2)o1 |  | > 200 µM | 11.7 µM |
| O=CC[C@H]1C(=O)C[C@@H]2CCC[C@@H]21 |  | > 794 µM | 44.7 µM |
| Cn1c(=O)c2ncnnc2n(C)c1=O |  | > 200 µM | 93.3 µM |
| Clc1cc(Cl)cc(Nc2nc3ccccc3nc2-c2cccs2)c1 |  | > 10 µM | > 10 µM |
| CC(=O)Oc1cc(C)cc2ccc(-c3ccc4cc(C)cc(OC(C)=O)c4c3OC(C)=O)c(OC(C)=O)c12 |  | > 200 µM | 28.8 µM |
| O=C(O)CC1NC(/C(=C/c2ccccc2)NC(=O)c2ccccc2)OC1=O (centres undefined) |  | > 200 µM | 9.12 µM |
| O=C(CC(C(=O)c1ccsc1)c1ccsc1)c1ccsc1 (centres undefined) |  | > 200 µM | 22.4 µM |
| O=C(NNC(=O)c1ccccc1O)c1cccc(Br)c1 |  | > 200 µM | 6.46 µM |
| COC1=CC(=O)[C@H]2[C@H](C)C(c3ccccc3)[C@@]2(C)C1=O (some centres undefined) |  | > 933 µM | 603 µM |
| NC(=O)C(=O)N/N=C1\C(=O)N(c2ccc(Cl)cc2Cl)C(=O)C1C(=O)Nc1ccc(Cl)cc1Cl (centres undefined) |  | > 7.08 µM | > 7.08 µM |
| COC(=O)CC[C@@H](C)C1CCC2(C)c3ccc4c(c3C(=O)C[C@]12C)CC[C@H](OC(C)=O)C4(C)C (some centres undefined) |  | > 100 µM | > 100 µM |
| COc1cc2c(cc1OC)C(C(CBr)CBr)N(C1CCCC1)CC2 (centres undefined) |  | > 389 µM | > 389 µM |
| NC(=O)c1cc2ccc(O)c(O)c2cn1 |  | > 209 µM | 2.95 µM |
| Cc1cc(C)cc(N(C2=NCCS2)C2=NCCS2)c1 |  | > 200 µM | > 200 µM |
| CC(=O)/C(=C/N1CCNC1=S)C(=O)Nc1ccc([N+](=O)[O-])cc1 |  | > 200 µM | 43.7 µM |
| O=C(O)c1ccc(O)c(N=Nc2cc(S(=O)(=O)O)c3cccnc3c2O)c1 |  | 81.3 µM | 224 µM |
| O=C1CC(=O)n2cnc3cccc(c32)N1 |  | 17.4 µM | > 200 µM |
| CCCCCCN(C(=O)Oc1ccccc1)C(C#N)c1ccccc1 (centres undefined) |  | > 200 µM | > 200 µM |
| COC(=O)Cc1c([C@H]2[C@H](CC(=O)OC)c3ccccc3N2C(=O)C(F)(F)F)[nH]c2ccccc12 |  | > 200 µM | 27.5 µM |

| Compound | outcome | EC50 | IC50 |
| --- | --- | --- | --- |
| CCOC(=O)NC(=O)c1cn(CCSCCOC(=O)NCCCCCCNC(=O)OCCSCCn2cc(C(=O)NC(=O)OCC)c(=O)n(C)c2=O)c(=O)n(C)c1=O |  | > 8.32 µM | > 8.32 µM |
| Cn1c(=N)n(CC(=O)NC23CC4CC(CC(C4)C2)C3)c2ccccc21 |  | > 347 µM | 66.1 µM |
| COC(=O)[C@]1(C)CCC[C@@]2(C)C1CC[C@]13C=C(C(C)C)[C@H](CC21)CC3(Cl)C#N (some centres undefined) |  | > 200 µM | 37.2 µM |
| COc1ccc(C2C3=C(COC3=O)OC(C)(C)Oc3cc4c(cc32)OCO4)cc1 (centres undefined) |  | > 200 µM | 13.8 µM |
| COc1ccccc1N/N=c1/c2n(-c3ccc(Cl)cc3)c(=S)n(-c3ccccn3)c1=NCCN=2 |  | > 200 µM | > 200 µM |
| OC1(CN2CCCCC2)N=C(c2ccccc2)c2ccsc2-n2cccc21 (centres undefined) |  | > 200 µM | 117 µM |
| COc1cccc(/C=N/[N-]C(N)=O)c1[O-].[Cu+2].c1ccncc1 |  | > 5.75 µM | > 5.75 µM |
| Cc1cc2c(cc1C)[n+](=O)c(C(=O)CC(=O)C(=O)Nc1ccccc1C)c(C)n2[O-] |  | > 9.33 µM | > 9.33 µM |
| CCOC(=O)c1nc2ccc(C(F)(F)F)cc2nc1Oc1cc(OC)c(OC)c(OC)c1 |  | > 100 µM | > 100 µM |
| NC1=NC2(O)c3ccccc3C(=O)C2(O)N1 (centres undefined) |  | > 45.7 µM | 28.8 µM |
| COC(=O)C1CCC(=O)N1CN(C(C)=O)c1ccccc1Cl (centres undefined) |  | > 200 µM | > 200 µM |
| Nc1nc(Cl)cc(Oc2ccc(Cl)cc2)n1 |  | > 200 µM | > 200 µM |
| Cc1cccc2c(N)c3cccc(C(=O)NCCNCCN)c3nc12 |  | > 0.2 µM | 0.11 µM |
| ClC(=C(c1ccc(OC2CCCCO2)cc1)c1ccc(OC2CCCCO2)cc1)c1ccccc1 (centres undefined) |  | > 100 µM | 87.1 µM |
| O=C(CC(NC(=O)OCc1ccccc1)C(=O)NC1Cc2ccccc2C1=O)OCc1ccccc1 (centres undefined) |  | > 200 µM | > 200 µM |
| Fc1ccc(CN2COc3c(cc(Cl)c4cccnc34)C2)cc1 |  | > 200 µM | 0.977 µM |
| CN1OC2OC(=O)OC2[C@H]1[C@H]1O[C@H](c2ccccc2)OC1(C)c1cc(OC(=O)c2ccccc2)ccc1OC(=O)c1ccccc1 (some centres undefined) |  | > 2.34 µM | > 2.34 µM |
| O=C1c2ccccc2C(=O)N1C/C=N/NS(=O)(=O)c1ccc(Cl)cc1 |  | > 95.5 µM | > 95.5 µM |
| CC(C)NCC(O)COc1cccc2ccccc12 (centres undefined) |  | > 200 µM | 120 µM |
| CCCc1cc(=O)oc2c3c(c4c(c12)OC(C)(C)C=C4)O[C@H](C)[C@@H](C)[C@@H]3O |  | 4.68 µM | 16.2 µM |
